Values quoted from earlier work as cited in patent US10894026B2, “Pharmaceutical compositions comprising a fumaric acid ester and method for the preparation thereof” (PHARMATHEN S.A., priority 2016, dated 2021).
Structures can show the parent of a compound that is named as a salt.

solubility in methanol (methanol): sparingly soluble
solubility in water (water): insoluble
SMILES: COC(=O)/C=C/C(=O)OC [Dimethyl fumarate, (E)-2-butenedioic acid dimethyl ester]
